Experimental data: patent US20240000950A1, “THERAPEUTIC CURE-PRO COMPOUNDS FOR TARGETED DEGRADATION OF BET DOMAIN PROTEINS, AND METHODS OF MAKING AND USING THEM” (CORNELL UNIVERSITY, priority 2020, published 2024)
“Also recorded” adds a separate entry of the source.

Legend:
MV-4-11 cells = test: CellTiter-Glo cell viability, MV-4-11 cells; assay type: cell-based; settings: 1 nM-100 μM, cotreated 1:1 with CRBN ligand 8049
Experimental: (§1) All cell lines were purchased from ATCC or DSMZ and grown at 37° C. with 5% C02. Human HeLa cells were cultured in complete growth medium (Dulbecco's modified Eagle's medium (DMEM) supplemented with 10% FBS); MCF7 cells were cultured in complete growth medium (Dulbecco's modified Eagle's medium (DMEM) supplemented with 10% FBS and 0.01 mg/ml human recombinant insulin (Sigma Aldrich); Namalwa and MOLM-13 cells were cultured in complete growth medium (RPMI 1640 medium supplemented with 10% FBS); MV-4-11 were cultured in complete growth medium (Iscove's Modified Dulbecco's medium, supplemented with 10% FBS); HCT116 cells were cultured in complete growth medium (McCoy's 5a Medium supplemented with 10% FBS). For cellular degradation of BRD4 studies, cells were seeded in a 12-well plate at 70-80% confluency, allowed to attach overnight, and incubated with the indicated compounds for the indicated time. When indicated, a 15-minute pretreatment with 10 μM pomalidomide, 10 μM VHL298, 10 μM Nutlin3a, 1 μM MG-132 or 1 μM Carfilzomib was performed before the addition of CURE-PROs. For washout studies, after CURE-PRO treatment, media was aspirated and incubated with complete medium for the indicated time before lysis.
CellTiter-Glo® 2.0 Cell Viability Assay (Promega) was carried out following the manufacturer's recommendations. Cells were seeded at a density of 1000 cells/well in a white 96 well plates (Corning, #3917) in a total volume of 100 μl with respective monomers, combinations of BRD ligands together with E3 ligase ligands or vehicle control treatment. After a 72 h incubation, 100 ul of the CellTiter-Glo® substrate was added per well and luminescence was read on a Spectramax M5 (Molecular Devices). Dose-response curves were generated using Graphpad Prism software.
MV-4-11 cells (5×104) were treated for 24 hours with the sample compounds solubilized in DMSO. The compounds were added at 1 nM-100 μM each. Cellular viability was determined using the CellTiter-Glo® Luminescent Cell Viability Assay (Promega) described above. FIGS. 19-22 depict the CURE-PRO-mediated loss of cellular viability for BRD monomers (JQ1 derivatives comprising of catechol linkers), and CRBN ligand, 8049 (pomalidomide derivatives comprising boronic acid linkers) combined in a 1:1 ratio.
MV-4-11 cells (1×104) were treated for 72 hours with the compounds solubilized in DMSO. Compounds were added at 10 nM-100 μM each. Cellular viability was determined using the CellTiter-Glo® Luminescent Cell Viability Assay (Promega) described above. FIGS. 47-54 depict the CURE-PRO-mediated loss of cellular viability for BRD monomers (JQ1 derivatives comprising of boronic acid linkers), and CRBN ligands, 8046, 8047, and 8066 (pomalidomide derivatives comprising diol linkers) combined in a 1:1 ratio.

SLC19A1 = test: Suppression of the c-MYC downstream target gene SLC19A1, RT-PCR in HeLa cells; assay type: cell-based, Human; settings: 24 h, 10 μM each
Experimental: The suppression of the expression of the downstream c-MYC target, SLC19A1, was measured by RT-PCR using Power SYBR® Green Cells-to-Ct™ Kit (Life Technologies). Adherent cells were plated on 96 well plates at 5,000 cells per well were treated for 24 h with monomer compounds and compounds capable of reversible interactions (1 nM-100 μM). Cells were subsequently washed in ice-cold PBS processed according to the manufacturer's instructions. Quantitative real-time PCR was performed using a ViiA™ 7 Real-time PCR System (Applied Biosystems, Foster City, CA, USA). GAPDH and ACTB served as internal controls. The primers used were (5′-3′): GAPDH-F: AGCCACATCGCTCAGACAC (SEQ ID NO:9), GAPDH-R: GCCCAATACGACCAAATCC (SEQ ID NO:10), ACTB-F: CCAACCGCGAGAAGATGA (SEQ ID NO:11), ACTB-R: […] (SEQ ID NO:12), SLC19A1-F: […] (SEQ ID NO:13), SLC19A1-R: […] (SEQ ID NO:14).
HeLa cells (1×104) were treated for 24 hours in 96 well plates with the compounds solubilized in DMSO. Compounds were added at 10 μM each and RNA expression measured by the Cells-to Ct method described above (Thermofisher).

BRD4 [1] = target: T1, BRD4 (Homo sapiens, UniProt O60885); test: BRD protein family degradation in HCT116 cells with MDM2 ligands, Western blot: BRD4; assay type: cell-based; set-up: endogenous in cells; host or cells: HeLa, MCF7 or HCT116; settings: 24 h, with MDM2 ligands 8310 / 8312
Experimental: as §1, with “When indicated, a 15-minute pretreatment with 10 μM pomalidomide, 10 μM VHL298, 10 μM Nutlin3a, 1 μM MG-132 or 1 μM Carfilzomib was performed before the addition of CURE-PROs. For washout studies, after CURE-PRO treatment, media was aspirated and incubated with complete medium for the indicated time before lysis.” left out
HeLa, MCF7, or HCT116 cells (2.5-3×10^6) were treated for 24 hours with the indicated compounds solubilized in DMSO. […] The total protein concentrations were determined by Bradford Protein Assay and 10-20 μg of protein was loaded onto 4-15% Tris-Glycine gradient gels (Biorad). […] Signal was detected with ECL Western Blotting Substrate (Pierce) and X-ray film processed with a Konica SRX-101 X-ray film processor or captured by Bio-Rad's Chemidoc Imaging system. […]

BRD4 [2] = target: T1, BRD4; test: Summary of E3 ligase directed degradation of BRD4, estimated from Western Blot or WES (Tables 1-6); assay type: cell-based; set-up: endogenous in cells; host or cells: HeLa, MCF7 or HCT116; settings: for Degradation of BRD4, combination with MDM2 ligand [drawing 463] / Degradation of BRD4, combination with MDM2 ligand [drawing 464]: Table 5; for Degradation of BRD4, combination with MDM2 ligand [drawing 463]: aryl-boronic acid-containing MDM2 ligand drawn as drawing 463 (apparently 8310); for Degradation of BRD4, combination with MDM2 ligand [drawing 464]: aryl-boronic acid-containing MDM2 ligand drawn as drawing 464 (apparently 8312)
Summary of the method: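 HeLa, MCF7 or HCT116 cells treated 24 h with compounds in DMSO, lysed in RIPA buffer; BRD4 levels read by Western blot (ECL detection) or capillary WES with HRP detection. Check mark denotes 30% to 70% or higher protein degradation.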

Row | Compound | toxicity / loss of cellular viability (CellTiter-Glo) (MV-4-11 cells) | suppression of SLC19A1 expression (SLC19A1; with MDM2 ligand 8310) | suppression of SLC19A1 expression (SLC19A1; with MDM2 ligand 8312) | selectivity of degradation within the BRD protein family (BRD4 [1]) | Degradation of BRD4, combination with MDM2 ligand [drawing 463] (BRD4 [2]) | Degradation of BRD4, combination with MDM2 ligand [drawing 464] (BRD4 [2]) | Degradation of BRD4, combination with CRBN ligand [drawing 457] (BRD4 [2]; Table 4, aryl-boronic acid-containing CRBN ligand drawn as drawing 457 (by the text apparently 8048))
1 | CCNC(=O)C[C@@H]1N=C(c2ccc(Cl)cc2)c2cc(OCCNC(=O)c3cccc(O)c3O)ccc2-n2c(C)nnc21 [BRD-N25] | a concentration-dependent loss in cellular viability was observed; also recorded: increased toxicity | a rightward shift in the curve and an increase in the Ct values | a rightward shift in the curve and an increase in the Ct values | some selectivity for BRD3 and BRD4 over BRD2 for 8310 | ✓ (A black check mark indicates efficacy of 30% to 70% or higher protein degradation) | ✓ (A black check mark indicates efficacy of 30% to 70% or higher protein degradation) | 
2 | CCNC(=O)C[C@@H]1N=C(c2ccc(Cl)cc2)c2cc(OCCOCCNC(=O)c3cccc(O)c3O)ccc2-n2c(C)nnc21 [BRD-N39, N-(2-(2-(((4S)-6-(4-chlorophenyl)-4-(2-(ethylamino)-2-oxoethyl)-1-methyl-4H-benzo[f][1,2,4]triazolo[4,3-a][1,4]diazepin-8-yl)oxy)ethoxy)ethyl)-2,3-dihydroxybenzamide] |  | a rightward shift in the curve and an increase in the Ct values | Complete suppression of SLC19A1 was evident | some selectivity for BRD4 over BRD2 and BRD3 | ✓ (A black check mark indicates efficacy of 30% to 70% or higher protein degradation) | ✓ (A black check mark indicates efficacy of 30% to 70% or higher protein degradation) | ✓ (A black check mark indicates efficacy of 30% to 70% or higher protein degradation)
